Measurements taken from paper PMC10892409, “Exploring Ocimum basilicum’s Secondary Metabolites: Inhibition and Molecular Docking against Rhynchophorus ferrugineus for Optimal Action” (Plants, 2024).
Values after ≈ are worked out from the molar mass of the structure shown. Values joined by “and” are separate entries in the source; they are usually repeats but may differ in a detail not shown here. Equal entries are not always repeated. Where two headings read alike, the source gives them in different places.

Tests used:
R. ferrugineus adults = assay: Antifeedant/insecticidal test on adults with treated sugarcane stem (probit LC50); assay type: in vivo, Rhynchophorus ferrugineus; settings: after 1 day of treatment, 95% confidence limits in brackets
Method: (§1) Over the course of 40 days, an O. basilicum cell suspension was cultivated in this investigation, and then the extract was obtained. […] Long segments of sugarcane stem were employed in the insect breeding lab at King Faisal University’s Research and Training Center to raise adult R. ferrugineus larvae. For this experiment, we used a topical application technique with larvae stored at 4 °C for five minutes to test the extract’s activity. Using a hand-operated micro-applicator (Burkard Manufacturing Co., Ltd., Hertfordshire, UK, collected using a […] micro-syringe), extracts at escalating ratios (10 µL) were injected into the dorsal surface of the larvae (Ito Corp.; MS-N50, Shizuoka, Japan). Five larvae per box in a series of three replicates were fed on sugarcane stem pieces measuring 10 cm in length. The LD50 was calculated by measuring the percentage of dead larvae at 24, 48, 72, and 96 h following a topical application. The antifeedant impact was determined in adults by giving them 10 cm sugarcane stem segments cut in half longitudinally. Long strips of sugarcane stem (32 cm^2) were immersed in the previous serial extract and compound concentration (10 mL) for ten seconds before they were dried in ambient air using a plastic box. Each box included a new pair of larvae (a male and a female). Ten sets of each treatment were performed. Data on how well the subjects ate were evaluated at 24, 48, 72, and 96 h.
(§2) The tissue culture parameters were calculated quantitatively from three independent sets of samples, and the mean SD was used to describe the findings. Toxicity parameters were determined quantitatively using a 10-replicate sample, and means and standard deviations were used to present the data. The median dosage obtained from a dose–response regression was used to calculate the LC50 value. By analyzing the comparative growth rate vs. the crude extract logarithm using least squares regression, the range of LC50 was calculated with 95% confidence. A simple variance study was performed on the increased weight and enzymatic activity data (ANOVA). The distinction between the means was accomplished using the Student–Newman–Keuls (SNK) test. Additionally, SPSS version 25 was used to find p < 0.05 significant deviations from the mean.

AChE [1] = assay: In vitro AChE inhibition, larval homogenate (Ellman); assay type: biochemical, Rhynchophorus ferrugineus; settings: fourth-instar larvae preparation
Method: (§3) The R. ferrugineus were homogenized larvae in a buffer (sodium phosphate, 40 mM, and pH 7.4); then, sodium chloride (10 mM dissolved in 1% (w/v) triton X-100) was added. During centrifugation (Sigma 3–30 KS), the homogenate was chilled to 4 °C and spun at a speed of 5000 rpm (20 min). The supernatant was either immediately put into action for an enzymatic test or frozen and kept at […] for later use. Each test was repeated three times. The protein content was determined using the same protocol employed by Lowry with modification using protein extract (100 µL) combined with an alkaline copper solution and a Folin–Ciocalteu phenol reagent (2 mL and 200 µL, respectively). The intensity of the resulting blue hue was evaluated during 30 min of incubation at 25 °C. Using an ELISA plate reader and a BSA standard curve, we could calculate the protein concentration by analyzing the absorbance at 600 nm (Multiskan SkyHigh Microplate Spectrophotometer, Thermo Fisher Scientific, Waltham, MA, USA).
(§4) The enzyme AChE was assessed using a substrate of acetylthiocholine iodide and evaluated using 5,5′-dithiobis [2-nitrbenzoic acid] (DTNB), according to [94]. Each well contained a sodium phosphate buffer (140 µL) (pH: 8.0; 100 mM), DTNB (10 µL), extract (20 µL)/components at 1, 10, 50, 100, and 1000 µg/mL in DMSO and underwent 15 min of incubation at 25 °C. Acetylthiocholine (ATCh) was added to start the reaction (10 µL). The ATCh enzymatic hydrolysis produced a 5-thio-2-nitrobenzoate anion as a color (yellow) that was detected by measuring its wavelength, i.e., 412 nm, thereby allowing the researchers to track the rate of ATCh hydrolysis (15 min). Each response was performed three times on a microplate and examined using an ELISA plate reader to determine the 412 nm absorbance of the combination (Multiskan SkyHigh Microplate Spectrophotometer). The AChE-specific activity was measured as OD412/mg protein.h. based on observing the effect of raising the quantities of all of these compounds during the tests on the inhibition results, and the inhibitory concentration (IC50) was calculated. Then, a computer algorithm was used to determine the IC50 values (Version 9.01 of GraphPad Prism by Inc., 2020, San Diego, CA, USA).

GABA-T [2] = target: T1, GABA-T (Rhynchophorus ferrugineus, UniProt A0A834I2E4); assay: In vivo GABA-T inhibition in treated fourth-instar larvae; settings: fourth-instar larvae treated 24 h
Method: The enzyme crude extract (25 μL) added to a solution included Tris-HCl, α-ketoglutarate, 2-mercaptoethanol, β-NAD, and GABA (50, 2, 20, and 3, respectively) at a volume of 1525 μL. Finally, 30 μL of tritonx100 ((1%, (v/v)) was added to the prior combination. We used 30 min of incubation at between 25 and 30 °C. Additionally, we used an ELISA plate reader to determine the absorbance of the combination at 340 nm (Multiskan SkyHigh Microplate Spectrophotometer). Specific activities of GABA-T were measured as OD 340/mg of protein·h.

ACPs [3] = assay: In vitro ACP inhibition, larval homogenate; assay type: biochemical, Rhynchophorus ferrugineus; settings: fourth-instar larvae preparation
Method: as §3
(§5) Activities of ACPs and ALPs were evaluated using a modified version of the Asakura technique. The ACP test required incubating 100 μL of crude enzyme in a buffer of 650 μL of sodium acetate (pH: 5.0; 50 mM with ACPs) or 250 μL of Tris–HCl (at 50 mM; pH: 8.0 with ALPs) and p-nitrophenyl phosphate (5.5 mM). For 30 min; the various mixes were kept at 37 °C for incubation. Thereafter, 500 μL of NaOH (0.5 N) stopped the reaction. Using an ELISA plate reader, we determined the mixture’s 415 nm absorbance value (Multiskan SkyHigh Microplate Spectrophotometer). The ACP- and ALP-specific activity was estimated as OD 415/mg protein·h.

[4] = system: fourth-instar larvae of R. ferrugineus; assay: Topical application (contact) to fourth-instar larvae (probit LD50); assay type: in vivo, Rhynchophorus ferrugineus; settings: after 1 day of treatment, 95% confidence limits in brackets
Method: as §1, §2

AChE [5] = assay: In vivo AChE inhibition in treated fourth-instar larvae; set-up: species or system Rhynchophorus ferrugineus; settings: fourth-instar larvae treated 24 h
Method: as §4
(§6) Each enzyme’s in vivo impact was measured after treating larvae with an extract or pure chemicals. An inhibitor-free test combination served as a negative control. We determined the absorbance of the enzymes throughout a spectrum of wavelengths using a rapid reader for ELISA plates (Multiskan SkyHigh Microplate Spectrophotometer). Extracts and pure chemicals were used to treat R. ferrugineus larvae at previous serial concentrations, and their AChE, ACP, ALP, and GABA-T activity was tested in vivo using the methods outlined above. Larvae spent a day on leaf disks treated with chemicals or extract.

ALPs [6] = assay: In vitro ALP inhibition, larval homogenate; assay type: biochemical, Rhynchophorus ferrugineus; settings: for IC50 ALPs in vitro: fourth-instar larvae preparation
Method: as §3, §5

ACPs [7] = assay: In vivo ACP inhibition in treated fourth-instar larvae; set-up: species or system Rhynchophorus ferrugineus; settings: fourth-instar larvae treated 24 h
Method: as §5, §6

ALPs [8] = assay: In vivo ALP inhibition in treated fourth-instar larvae; set-up: species or system Rhynchophorus ferrugineus; settings: fourth-instar larvae treated 24 h
Method: as §5, §6

GABA-T [9] = target: T1, GABA-T; assay: In vitro GABA-T inhibition, larval homogenate; assay type: biochemical; settings: fourth-instar larvae preparation, listed as salvianolic acid B
Method: The R. ferrugineus were homogenized larvae in a buffer (sodium phosphate, 40 mM, and pH 7.4); then, sodium chloride (10 mM dissolved in 1% (w/v) triton X-100) was added. During centrifugation (Sigma 3–30 KS), the homogenate was chilled to 4 °C and spun at a speed of 5000 rpm (20 min). The supernatant was either immediately put into action for an enzymatic test or frozen and kept at 20 °C for later use. […] The protein content was determined using the same protocol employed by Lowry with modification [93] using protein extract (100 µL) combined with an alkaline copper solution and a Folin–Ciocalteu phenol reagent (2 mL and 200 µL, respectively). The intensity of the resulting blue hue was evaluated during 30 min of incubation at 25 °C. Using an ELISA plate reader and a BSA standard curve, we could calculate the protein concentration by analyzing the absorbance at 600 nm (Multiskan SkyHigh Microplate Spectrophotometer, Thermo Fisher Scientific, Waltham, MA, USA).
The GABA-T activity was assessed with a modified version of the method published by [96]. The enzyme crude extract (25 μL) added to a solution included Tris-HCl, α-ketoglutarate, 2-mercaptoethanol, β-NAD, and GABA (50, 2, 20, and 3, respectively) at a volume of 1525 μL. […]

[10] = Rhynchophorus ferrugineus, 24 h, read-out: LC50

T1 sequence (A0A834I2E4 28-494): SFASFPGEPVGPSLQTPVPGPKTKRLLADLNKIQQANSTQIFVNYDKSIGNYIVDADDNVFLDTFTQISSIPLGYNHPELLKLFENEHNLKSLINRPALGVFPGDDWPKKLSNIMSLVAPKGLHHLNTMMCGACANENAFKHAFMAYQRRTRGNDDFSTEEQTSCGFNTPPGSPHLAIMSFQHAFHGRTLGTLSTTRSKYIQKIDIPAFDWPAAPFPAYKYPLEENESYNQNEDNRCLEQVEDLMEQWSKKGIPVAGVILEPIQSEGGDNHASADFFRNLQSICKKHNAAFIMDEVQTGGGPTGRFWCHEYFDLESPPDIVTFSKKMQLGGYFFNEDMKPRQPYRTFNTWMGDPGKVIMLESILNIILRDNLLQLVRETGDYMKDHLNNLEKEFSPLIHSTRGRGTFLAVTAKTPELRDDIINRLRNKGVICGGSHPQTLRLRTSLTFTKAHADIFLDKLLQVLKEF

Compound | IC50 AChE in vitro (AChE [1]) [µg/mL] | LD50 [4] | IC50 AChE in vivo (AChE [5]) [µg/mL] | IC50 ALP in vitro (ALPs [6]) [µg/mL] | IC50 ACPs in vivo (ACPs [7]) | IC50 ALPs in vivo (ALPs [8]) [µg/mL] | LC50 (R. ferrugineus adults; [10]) [µg/mL] | other results
Salvianolic acid B | 117 ± 1.08 | 11.1 (10.1–12.18) µg/Larvae | 229.7 | 105 | < 330 µg/mL and 182.3 µg/mL | 194.6 | – | LC50 (R. ferrugineus adults): 1195 (1121–1278) µg/mL; IC50 AChE in vitro (AChE [1]; listed as salvianolic acid B): 116.7 µg/mL; IC50 GABA-T in vivo (GABA-T [2]): 324.8 µg/mL; IC50 ACPs in vitro (ACPs [3]; listed as salvianolic acid B): 98.2 µg/mL; LD50 ([4]; listed as salvianolic acid B): 11.1 µg/Larvae; IC50 ALPs in vitro (ALPs [6]; listed as salvianolic acid B): < 200 µg/mL; IC50 GABA-T in vitro (GABA-T [9]): 197.2 µg/mL
O=C(/C=C/c1ccc(O)c(O)c1/C=C/c1ccc(O)c(O)c1)O[C@H](Cc1ccc(O)c(O)c1)C(=O)O [Salvianolic acid A] | 94 ± 0.94 | 11.3 (10.2–12.47) µg/Larvae | 178.2 | 116 (≈ 234 µM) | < 330 µg/mL and 226.3 µg/mL | 213.8 | 1260 (≈ 2550 µM) | IC50 AChE in vitro (AChE [1]; listed as salvianolic acid A): 93.6 µg/mL; IC50 ACPs in vitro (ACPs [3]; listed as salvianolic acid A): 112.2 µg/mL (≈ 227 µM); LD50 ([4]; listed as salvianolic acid A): 11.3 µg/Larvae; IC50 ALPs in vitro (ALPs [6]; listed as salvianolic acid A): < 200 µg/mL
COc1cc(/C=C/C(=O)O[C@@H](C(=O)O)[C@@H](O)C(=O)O)ccc1O [Fertaric acid] | 124 ± 1.18 | 19.46 (18.23–20.76) µg/Larvae | 385 ± 1.18 | 137 (≈ 421 µM) | – | – | 1530 (≈ 4680 µM) | IC50 AChE in vitro (AChE [1]; listed as fertaric acid): 123.6 µg/mL; IC50 ACPs in vitro (ACPs [3]; listed as fertaric acid): 133.5 µg/mL (≈ 409 µM); LD50 ([4]; listed as fertaric acid): 19.46 µg/Larvae; IC50 AChE in vivo (AChE [5]; listed as fertaric acid): 384.7 µg/mL; IC50 ALPs in vitro (ALPs [6]; listed as fertaric acid): < 200 µg/mL; IC50 ACPs in vivo (ACPs [7]; listed as fertaric acid): 349.4 µg/mL; IC50 ALPs in vivo (ALPs [8]; listed as fertaric acid): 436.8 µg/mL
